{
  "source": "paper PMC6819114",
  "about": "“Peptide-conjugated oligonucleotides evoke long-lasting myotonic dystrophy correction in patient-derived cells and mice” (The Journal of Clinical Investigation, 2019)",
  "origin": "cited, not measured here",
  "from_the_text": "Among strategies to improve delivery of ASOs in DM1 skeletal muscles, cell-penetrating peptide conjugates offer an attractive avenue ([22]–[24]). Indeed, systemic administration of advanced Pip6a peptides conjugated with splice-switch oligonucleotides has shown promising results in DMD mice by restoring a truncated but functional dystrophin ([25]). Pip6a is a cell-penetrating peptide composed of a hydrophobic core region flanked on each side by arginine-rich domains containing β-alanine and aminohexanoyl spacers. This peptide sequence has the ability to deliver associated cargoes across the pl ...",
  "data": [
    {"substance": "Ac-(RXRRBRRXRYQF LIRXRBRXRB)-CO OH [Pip6a, arginine-rich cell-penetrating peptide: hydrophobic core flanked by arginine-rich domains containing β-alanine and aminohexanoyl spacers]", "values": [
      {"measurement": "stability to serum proteolysis", "result": "stable"}
    ]}
  ]
}
